Experimental data taken from article PMC2867451 (Journal of medicinal chemistry, 2010).
Read-outs that look alike come from different tables or passages of the source.

Experiments:
behavioral toxicity [1] = experiment: behavioral toxicity, rat; details: for PI: protective index TD50/ED50; for behavioral toxicity observed: rat (po), 500 mg/kg
[2] = test system: maximal electroshock seizure (MES); experiment: maximal electroshock seizure; assay type: in vivo, rat; details: for MES, ED50: rat, po
[3] = test system: maximal electroshock seizure (MES); experiment: maximal electroshock seizure; assay type: in vivo, mice; details: for ED50: Mus musculus, ip, read-out: MES, ED50; for duration of action in the MES model: mice (ip) and rat (po)
[4] = test system: subcutaneous Metrazol (scMet) seizure; experiment: subcutaneous Metrazol; assay type: in vivo, mice; details: Mus musculus, ip, read-out: scMet ED50
[5] = test system: formalin-induced pain response; details: 16 mg/kg; cited from earlier work
[6] = test system: psychomotor 6 Hz (32 mA) seizure; details: mice, ip; cited from earlier work
[7] = test system: hippocampal kindled seizure; details: rat; similar screening; cited from earlier work
[8] = test system: maximal electroshock seizure (MES); details: mice, ip; cited from earlier work
[9] = test system: formalin-induced pain response; experiment: formalin test, biphasic pain model, mice; assay type: in vivo; details: 15 mg/kg; mouse, ip
behavioral toxicity, rat = details: male, Sprague-Dawley, rat, in vivo, po
[10] = test system: maximal electroshock seizure (MES); details: rat, po; cited from earlier work
[11] = rotorod test for neurological impairment, mice; assay type: in vivo; details: male, Carworth Farms No. 1, mouse, in vivo, ip
[12] = test system: neurological impairment (rotorod test); experiment: rotorod test for neurological impairment, mice; assay type: in vivo; details: mice, ip; rotorod test
behavioral toxicity [13] = details: rat, po; TD50/ED50; cited from earlier work
[14] = test system: neurological impairment (rotorod test); details: mice, ip; TD50/ED50; cited from earlier work

SMILES: CC(=O)NC(C(=O)NCc1ccc(OCc2cccc(F)c2)cc1)c1ccccn1 (racemic) [(R,S)-9, N-4′-((3″-Fluoro)benzyloxy)benzyl 2-Acetamido-2-(pyridin-2-yl)acetamide]
- Tox, TD50 (behavioral toxicity [1]; rat, po, behavioral toxicity): >30 [4] mg/kg
- MES, ED50 [2]: >30 [4] mg/kg

SMILES: COCC(NCc1ccc(OCc2cccc(F)c2)cc1)C(N)=O (racemic) [(R,S)-74, 2-(4′-((3″-Fluoro)benzyloxy)benzyl)amino-3-methoxypropionamide]
- ED50 [3]: 30 to 100 mg/kg

SMILES: NC(=O)C(NCc1ccc(OCc2cccc(F)c2)cc1)c1ccco1.O=C(O)C(=O)O (racemic) [(R,S)-75, 2-(4′-((3″-Fluoro)benzyloxy)benzyl)amino-2-(furan-2-yl)acetamide Oxalate]
- ED50 [3]: 10 to 30 mg/kg
- ED50 [4]: 100 to 300 mg/kg

SMILES: COC[C@@H](NC(C)=O)C(=O)NCc1ccccc1 [(R)-3, Lacosamide]
- reduction in pain, formalin model [5]: comparable reduction in pain was observed only in the late phase
- 6 Hz (32 mA) ED50 [6]: 10 mg/kg
- hippocampal kindled seizure test ED50 [7]: 14 mg/kg

SMILES: C[C@@H](NCc1ccc(OCc2cccc(F)c2)cc1)C(N)=O [(R)-4]
- MES, ED50 [8]: 7.2 (5.9–8.9) mg/kg

SMILES: CC(=O)N[C@H](C)C(=O)NCc1ccc(OCc2cccc(F)c2)cc1 [(R)-6, (R)-N-4′-((3″-Fluoro)benzyloxy)benzyl 2-Acetamido-propionamide]
- duration of action in the MES model [3]: extended duration of action
- PI (behavioral toxicity [1]; rat, po): >16

SMILES: COC[C@@H](NC(C)=O)C(=O)NCc1ccc(OCc2cccc(F)c2)cc1 [(R)-10, (R)-N-4′-((3″-Fluoro)benzyloxy)benzyl 2-Acetamido-3-methoxypropionamide]
- PI (behavioral toxicity [1]; rat, po): >36
- pain responses in the acute and the chronic inflammatory phases [9]: reduced pain responses

SMILES: COC[C@@H](NC(C)=O)C(=O)NCc1ccc(-c2cccc(F)c2)cc1 [(R)-11, (R)-N-(3″-Fluorobiphenyl-4-yl)methyl 2-Acetamido-3-methoxypropionamide]
- behavioral toxicity observed (behavioral toxicity [1]): no evidence of behavioral toxicity
- MES, ED50 [2]: 1.4 to 2.4 mg/kg

SMILES: COC[C@@H](NC(C)=O)C(=O)NCc1ccc(Oc2cccc(F)c2)cc1 [(R)-12, (R)-N-4′-((3″-Fluoro)phenoxy)benzyl 2-N-Acetamido-3-methoxypropionamide]
- ED50 [3]: < 30 mg/kg

SMILES: COC[C@@H](NC(C)=O)C(=O)NCc1ccc(C#Cc2cccc(F)c2)cc1 [(R)-15, (R)-N-4′-(((3″-Fluoro)phenyl)ethynyl)benzyl 2-Acetamido-3-methoxypropionamide]
- duration of action in the MES model [3]: extended duration of action
- duration of seizure protection ([2]; MES test, rat (po)): extended for the entire 4 h testing period
- MES, ED50 [2]: 1.4 to 2.4 mg/kg

SMILES: COC[C@@H](NC(C)=O)C(=O)NCc1ccc(COc2cccc(F)c2)cc1 [(R)-16, (R)-N-4′-(((3″-Fluoro)phenoxy)methyl)benzyl 2-Acetamido-3-methoxypropionamide]
- PI (behavioral toxicity [1]; rat, po): >21

SMILES: COC[C@@H](NC(C)=O)C(=O)NCc1ccc(OCc2ccccc2)cc1 [(R)-20, (R)-N-4′-(Benzyloxy)benzyl 2-N-Acetamido-3-methoxypropionamide]
- ED50 [3]: < 3 mg/kg
- TD50 (behavioral toxicity, rat): > 10 mg/kg

SMILES: COC[C@@H](NC(C)=O)C(=O)NCc1ccc(OCc2ccccc2F)cc1 [(R)-21, (R)-N-4′-((2″-Fluoro)benzyloxy)benzyl 2-Acetamido-3-methoxypropionamide]
- PI (behavioral toxicity [1]; rat, po): >45

SMILES: COC[C@@H](NC(C)=O)C(=O)NCc1ccc(OCc2ccc(F)cc2)cc1 [(R)-22, (R)-N-4′-((4″-Fluoro)benzyloxy)benzyl 2-Acetamido-3-methoxypropionamide]
- PI (behavioral toxicity [1]; rat, po): >86

SMILES: COC[C@@H](NC(C)=O)C(=O)NCc1ccc(-c2ccccc2)cc1 [(R)-73, (R)-N-(biphenyl-4-yl)methyl 2-acetamido-3-methoxypropionamide]
- MES, ED50 [10]: 2.0 mg/kg

SMILES: C[C@H](NCc1ccc(OCc2cccc(F)c2)cc1)C(N)=O [(S)-4, Safinamide]
- MES, ED50 [8]: 8.0 (7.0–9.1) mg/kg

SMILES: CC(=O)N[C@@H](C)C(=O)NCc1ccc(OCc2cccc(F)c2)cc1 [(S)-6, (S)-N-4′-((3″-Fluoro)benzyloxy)benzyl 2-Acetamidopropionamide]
- TD50 [11]: > 300 mg/kg

SMILES: COC[C@H](NC(C)=O)C(=O)NCc1ccc(OCc2cccc(F)c2)cc1 [(S)-10, (S)-N-4′-((3″-Fluoro)benzyloxy)benzyl 2-Acetamido-3-methoxypropionamide]
- ED50 [3]: > 300 mg/kg
- Tox, TD50 [12]: >300 mg/kg

SMILES: CC(=O)NCC(=O)NCc1ccc(OCc2cccc(F)c2)cc1 [compound 5, N-4′-((3″-Fluoro)benzyloxy)benzyl 2-Acetamidoacetamide]
- behavioral toxicity observed (behavioral toxicity [1]): no apparent neurological toxicity
- PI (behavioral toxicity [1]; rat, po): >16

SMILES: O=C1NC(=O)C(c2ccccc2)(c2ccccc2)N1 [phenytoin]
- PI (behavioral toxicity [13]): > 100

SMILES: CCCC(CCC)C(=O)[O-].[Na+] [valproate]
- PI (behavioral toxicity [13]): 0.6
- PI [14]: 1.6
